Like-named read-outs stand apart in the source and are kept apart here.
Columns and labels:
[1] = test system: panel of 8 AML cell lines; experiment: Secondary dose-response HTS, whole panel; format: cell-based, human; conditions: secondary HTS (Supplementary Data 2)
M07e [2] = experiment: Secondary dose-response HTS, Cell Titer Glo; format: cell-based, human; conditions: Homo sapiens, M-07e
CMS [3] = experiment: Secondary dose-response HTS, Cell Titer Glo; format: cell-based, human; conditions: Homo sapiens
U937 [4] = experiment: Secondary dose-response HTS, Cell Titer Glo; format: cell-based, human; conditions: Homo sapiens, U-937
CHRF288-11 [5] = experiment: Secondary dose-response HTS, Cell Titer Glo; format: cell-based, human; conditions: for EC50: Homo sapiens
ML2 = experiment: Secondary dose-response HTS, Cell Titer Glo; format: cell-based, human; conditions: Homo sapiens; secondary high-throughput screen; ML-2; read-out: average effective concentration, ML-2
CMK [6] = experiment: cells; parameters: species or system AML cell lines (8); Secondary HTS, 10-point dose-response in triplicate, Cell Titer Glo viability, four-parameter fit EC50; conditions: Homo sapiens, CMK, 72 h, read-out: CMK
MV4-11 [7] = experiment: cells; parameters: species or system AML cell lines (8); Secondary HTS, 10-point dose-response in triplicate, Cell Titer Glo viability, four-parameter fit EC50; conditions: Homo sapiens, MV4-11, 72 h, read-out: MV4-11
[8] = test system: AMKL primary AML blast samples; experiment: Ex vivo drug treatment of primary AML blasts on mesenchymal stromal cells; format: cell-based; conditions: Homo sapiens; primary blasts on MSC, 96 h
MOLM-13 [9] = experiment: Secondary dose-response HTS, Cell Titer Glo; format: cell-based, human; conditions: MOLM-13; for EC50: Homo sapiens
CHRF288-11 [10] = experiment: cells; parameters: species or system AML cell lines (8); Secondary HTS, 10-point dose-response in triplicate, Cell Titer Glo viability, four-parameter fit EC50; conditions: 72 h, read-out: CHRF288-11
M07e [11] = experiment: cells; parameters: species or system AML cell lines (8); Secondary HTS, 10-point dose-response in triplicate, Cell Titer Glo viability, four-parameter fit EC50; conditions: M-07e, 72 h, read-out: M07e
ML-2 [12] = experiment: cells; parameters: species or system AML cell lines (8); Secondary HTS, 10-point dose-response in triplicate, Cell Titer Glo viability, four-parameter fit EC50; conditions: Homo sapiens, ML-2, 72 h, read-out: ML-2
[13] = test system: FLT3-ITD+ primary AML blast samples
U937 [14] = experiment: cells; parameters: species or system AML cell lines (8); Secondary HTS, 10-point dose-response in triplicate, Cell Titer Glo viability, four-parameter fit EC50; conditions: Homo sapiens, U-937, 72 h, read-out: U937
[15] = test system: MLLr primary AML blast samples; experiment: Ex vivo drug treatment of primary AML blasts on mesenchymal stromal cells; format: cell-based; conditions: Homo sapiens; primary blasts on MSC, 96 h, range over patient samples
AML cell lines = experiment: Intracellular drug and phosphorylated metabolites by HPLC with liquid scintillation counting; conditions: 2 h, 1 µM, all cell lines evaluated
MOLM-13 [16] = format: cell-based; conditions: Homo sapiens, 72 h, Cell Titer Glo
THP-1 = format: cell-based; conditions: Homo sapiens, 72 h, Cell Titer Glo
U937 [17] = format: cell-based; conditions: Homo sapiens, U-937; 72 h, Cell Titer Glo
CMS [18] = format: cell-based; conditions: Homo sapiens, 72 h, read-out: IC50 CMS
MV4-11 [19] = format: cell-based; conditions: Homo sapiens, 72 h, Cell Titer Glo
CHRF288-11 [20] = format: cell-based; conditions: Homo sapiens; 72 h, Cell Titer Glo; read-out: IC50 CHRF288-11
CMK [21] = experiment: Secondary dose-response HTS, Cell Titer Glo; format: cell-based, human; conditions: Homo sapiens, CMK
MV4-11 [22] = experiment: Secondary dose-response HTS, Cell Titer Glo; format: cell-based, human; conditions: MV4-11; for EC50: Homo sapiens
ML-2 [23] = format: cell-based; conditions: Homo sapiens, 72 h, Cell Titer Glo
[24] = secondary high-throughput screen, M07e, read-out: average effective concentration, M07e
[25] = HTS, secondary high-throughput screen, CMS, read-out: average effective concentration, CMS
[26] = secondary high-throughput screen, U937, read-out: average effective concentration, U937
[27] = HTS, secondary high-throughput screen, CHRF288-11, read-out: average effective concentration, CHRF288-11
[28] = secondary high-throughput screen, read-out: average effective concentration, MOLM-13
[29] = secondary high-throughput screen, read-out: average effective concentration, MV4-11
[30] = secondary high-throughput screen
[31] = secondary high-throughput screen, read-out: average effective concentration, CMK

| SMILES | active cell lines out of 8 in HTS [1] | EC50 (M07e [2]; [24]) [nM] | EC50 (CMS [3]; [25]) [nM] | EC50 (U937 [4]; [26]) [nM] | EC50 (CHRF288-11 [5]; [27]) [nM] | EC50 (ML2) [nM] | IC50 [8] [nM] | EC50 (MOLM-13 [9]; [28]) [nM] | IC50 (MOLM-13 [16]) [nM] | IC50 (THP-1) [nM] | IC50 (U937 [17]) [nM] | IC50 (CMS [18]; Cell Titer Glo) [nM] | IC50 (MV4-11 [19]) [nM] | IC50 (CHRF288-11 [20]) [nM] | IC50 (ML-2 [23]) [nM] | EC50 (MV4-11 [22]; [29]) [nM] | EC50 (CMK [21]; [31]) [nM] | other results |
| --- | --- | --- | --- | --- | --- | --- | --- | --- | --- | --- | --- | --- | --- | --- | --- | --- | --- | --- |
| CON(C)C(=O)N1N=C(c2cc(F)ccc2F)S[C@@]1(CCCN)c1ccccc1 [ARRY-520, reference compound] | 3/8 | 1 | 1 | 1 | 1 | 1 | – | – | – | – | – | – | – | – | – | – | – | – |
| COc1cc(Nc2ncc3c(n2)-c2ccc(Cl)cc2C(c2c(F)cccc2OC)=NC3)ccc1C(=O)O [Alisertib] | 4/8 | – | 4000 | – | – | – | 441 | 8300 | – | – | – | – | – | – | – | – | – | EC50 (CMK [6]): 2.1 nM; EC50 (MV4-11 [7]): > 10000 nM; EC50 (CHRF288-11 [10]): > 10000 nM; EC50 (M07e [11]): > 10000 nM; EC50 (ML-2 [12]): > 10000 nM; IC50 [13]: 8.8 to 3190 nM; EC50 (U937 [14]): > 10000 nM; IC50 [15]: 105 to 4320 nM |
| Nc1ccn([C@@H]2O[C@H](COP(=O)(O)OP(=O)(O)OP(=O)(O)O)[C@@H](O)[C@@H]2O)c(=O)n1 [Ara-CTP, cytarabine triphosphate] | – | – | – | – | – | – | – | – | – | – | – | – | – | – | – | – | – | share of the total intracellular accumulation (AML cell lines): 52–65% |
| Nc1nc(Cl)nc2c1ncn2[C@@H]1O[C@H](CO)[C@@H](O)[C@@H]1F [Clofarabine, clofarabine, reference compound] | – | 13 | 18 | 88 | – | – | – | 47 | 37 | 90 | 56 | 80 | 71 | 332 | 173 | – | – | EC50 (MOLM-13 [9]; secondary HTS, 72 h, average of triplicate, read-out: EC50 MOLM-13): 50 nM; EC50 (M07e [2]; secondary HTS, 72 h, average of triplicate, read-out: EC50 M07e): 10 nM; EC50 (CMS [3]; secondary HTS, 72 h, average of triplicate, read-out: EC50 CMS): 20 nM; EC50 (CMK [21]; secondary HTS, 72 h, average of triplicate, read-out: EC50 CMK): 5 nM; EC50 (MV4-11 [22]; secondary HTS, 72 h, average of triplicate, read-out: EC50 MV4-11): 150 nM; EC50 (U937 [4]; secondary HTS, 72 h, average of triplicate, read-out: EC50 U937): 90 nM; EC50 (CHRF288-11 [5]; secondary HTS, 72 h, average of triplicate, read-out: EC50 CHRF288-11): 370 nM |
| CC(=O)O[C@@]12CO[C@@H]1C[C@H](O)[C@@]1(C)C(=O)[C@H](O)C3=C(C)[C@@H](OC(=O)[C@H](O)[C@@H](NC(=O)OC(C)(C)C)c4ccccc4)C[C@@](O)([C@@H](OC(=O)c4ccccc4)[C@H]21)C3(C)C [Docetaxel, docetaxel, reference compound] | – | 1 | – | 1 | 500 | – | – | 1 | 2.2 | 3.2 | 2.1 | – | 3 | 10.8 | 1.5 | 1 | – | IC50 (CMS [18]): 19.9 nM; EC50 (CMS [3]; HTS, read-out: average effective concentration, CMS): 4.4 nM; EC50 (CMK [21]; read-out: average effective concentration, CMK): 1 nM |
| Nc1nc(F)nc2c1ncn2[C@@H]1O[C@H](CO)[C@@H](O)[C@@H]1O [Fludarabine, fludarabine, reference compound] | – | > 10000 | 130 | > 10000 | – | > 10000 | – | – | 1750 | 4120 | 31 | 65 | > 15000 | > 35000 | 5580 | – | 8100 | average effective concentration, MOLM-13 (MOLM-13 [9]; [30]): Inactive; average effective concentration, MV4-11 (MV4-11 [22]; [30]): Inactive; average effective concentration, CHRF288-11 (CHRF288-11 [5]; secondary high-throughput screen, CHRF288-11): Inactive |
| C=CCn1c(=O)c2cnc(Nc3ccc(N4CCN(C)CC4)cc3)nc2n1-c1cccc(C(C)(C)O)n1 [MK-1775, reference compound] | 7/8 | – | 630 | 460 | 10000 | 210 | > 10000 | 370 | – | – | – | – | – | – | – | 210 | 210 | – |
| CC(=O)O[C@H]1C(=O)[C@@]2(C)[C@H]([C@H](OC(=O)c3ccccc3)[C@]3(O)C[C@H](OC(=O)[C@H](O)[C@@H](NC(=O)c4ccccc4)c4ccccc4)C(C)=C1C3(C)C)[C@]1(OC(C)=O)CO[C@@H]1C[C@@H]2O [Paclitaxel, paclitaxel] | – | – | – | – | – | – | – | – | 3 | 5.4 | 2.5 | 25.7 | 2.1 | 24.9 | 3.5 | – | – | – |
| CC[C@@H]1C(=O)N(C)c2cnc(Nc3ccc(C(=O)N[C@H]4CC[C@H](N5CCN(CC6CC6)CC5)CC4)cc3OC)nc2N1C(C)C [Volasertib, reference compound] | 7/8 | – | 1400 | 1 | 3200 | 1 | 353 | – | – | – | – | – | – | – | – | 8 | 15 | IC50 [13]: 4.6 to 931 nM; IC50 [15]: 62 to 482 nM |

— publication PMC6522510 (Nature Communications, 2019)
